The test system of the experiment is RelB. The experiment can be described thus: RelB, IKKα, NIK and RelA/p65 levels by western blotting in CSE-treated Ramos B-cells. In kind it is cell-based, human. Conditions: B-cells pretreated with ALLN 25 μM for 20 min, then CSE 0.5% and 1.0% for 1 h; whole cell lysates, immunoblotting. The protocol: MonoMac6-, Ramos B- and WEHI-231-cells were seeded at a density of less than 1×10^6 cells/well (total final volume=2 ml), grown to ˜80-90% confluency in six-well plates containing RPMI 1640 medium with 10% FBS, washed in Ca2+- and Mg2+-free PBS, and then exposed to various treatments in media containing 1% serum. All treatments were performed in duplicate. The cells were treated with CSE (0.5, 1.0 and 5%) for 1 h at 37° C. with 7.5% CO2. At the end of treatment, the cells were washed with cold, sterile Ca2+- and Mg2+-free PBS and were lysed in RIPA buffer as whole lysate (western blotting), and the lysates stored at −80° C. […]
Lung tissue homogenate samples (cytoplasmic and nuclear proteins) were separated on a 7.5%-12% SDS-PAGE. […] The next day, membranes were washed and incubated for 1 h at room temperature with the appropriate secondary antibody linked to horseradish peroxidase (Dako, Santa Barbara, Calif.), bound complexes were detected with the use of the enhanced chemiluminescence method (Jackson Immunology Research, West Grove, Pa.).
A general note: In western blotting, separated proteins are transferred to a membrane and probed.

Non-standard residues stand in square brackets, D forms with d. Residues, ends and D or L forms follow the SMILES beside them. Nle = CCCC[C@H](N)C(=O)O

In the case of `CCCC[C@@H](C=O)NC(=O)[C@H](CC(C)C)NC(=O)[C@H](CC(C)C)NC(C)=O` [ALLN] (Ac-Leu-Leu-[Nle]-aldehyde), the “degradation of RelB in response to CSE” value was “prevented the degradation of RelB”.

The values are drawn from patent US20120183524A1, “MOLECULAR TARGETS FOR TREATMENT OF INFLAMMATION” (University Of Rochester, priority 2007, published 2012).
